Results published in ChEMBL document CHEMBL1144348, “Mechanism of cytotoxicity of copper(I) complexes of 1,2-bis(diphenylphosphino)ethane” (J Med Chem, 2005).
In brackets after ≈: the same amount, converted by molar mass.

Key:
NCI-H460 [1] = experiment: Inhibitory concentration against human lung carcinoma cell line H460 after 48 hr in MTT assay; assay type: functional, cell-based; conditions: NCI-H460, 48 h
NCI-H460 [2] = experiment: Percent of cells with COMET measured after single cell gel electrophoresis with the compound; assay type: functional, Homo sapiens

IC50 (NCI-H460 [1]) [µg/mL]	Structure (SMILES)	Activity (NCI-H460 [2]) [%]
0.25 (≈ 0.627 µM)	c1ccc(P(CCP(c2ccccc2)c2ccccc2)c2ccccc2)cc1	
0.05 (≈ 0.092 µM)	COc1cccc2c1C(=O)c1c(O)c3c(c(O)c1C2=O)C[C@@](O)(C(=O)CO)C[C@@H]3O[C@H]1C[C@H](N)[C@H](O)[C@H](C)O1 [DOXORUBICIN]	93.55
